A short description of data set [1]: (§1) Toxicity against brine shrimp larvae assessed as mortality after 24 hrs by binocular microscopic analysis. Type of data set: organism-based. The settings on record: artemia salina, in vivo.
A further data set deals with Artemia salina. The description is as §1. The data set is classed as organism-based. The settings on record: in vivo, 24 h.
The nature of data set [2]: Toxicity against brine shrimp larvae assessed as mortality at 10 ug/mL after 24 hrs by binocular microscopic analysis relative to control. The data set is classed as organism-based. The settings on record: artemia salina, in vivo.
A short description of data set [3]: Toxicity against brine shrimp larvae assessed as mortality at 100 ug/mL after 24 hrs by binocular microscopic analysis relative to control. The data set is classed as organism-based. As to conditions: artemia salina, in vivo.
Data set [4] can be described thus: Toxicity against brine shrimp larvae assessed as mortality at 500 ug/mL after 24 hrs by binocular microscopic analysis relative to control. Type of data set: organism-based. As to conditions: artemia salina, in vivo.
A short description of data set [5]: Toxicity against brine shrimp larvae assessed as mortality at 1000 ug/mL after 24 hrs by binocular microscopic analysis relative to control. The data set is classed as organism-based. As to conditions: artemia salina, in vivo.
The test system of data set [6] is Chromobacterium violaceum. Put plainly: Antiquorum-sensing activity against Chromobacterium violaceum ATCC 12472 after 48 hrs. Type of data set: functional.
In another data set the test system is Aspergillus flavus. Put plainly: Antifungal activity against Aspergillus flavus 3372 at 5 mg/mL after 48 hrs. The settings on record: Aspergillus flavus, 3372, 48 h; read-out: DIZ. Type of data set: functional.
A further data set relates to Aspergillus fumigatus. Put plainly: Antifungal activity against Aspergillus fumigatus Af293 at 5 mg/mL after 48 hrs. The data set is classed as functional. As to conditions: Af293, 48 h, read-out: DIZ.
For another data set, the system named is Candida albicans. Put plainly: Antifungal activity against Candida albicans at 5 mg/mL after 48 hrs. Type of data set: functional. As to conditions: read-out: DIZ.
The next data set deals with Staphylococcus aureus. Put plainly: Antibacterial activity against Staphylococcus aureus at 5 mg/mL after 24 hrs. Type of data set: functional. The settings on record: read-out: DIZ.
For the next data set, the system named is Bacillus cereus. Put plainly: Antibacterial activity against Bacillus cereus at 5 mg/mL after 24 hrs. Type of data set: functional. The settings on record: read-out: DIZ.
A further data set concerns Escherichia coli. Put plainly: Antibacterial activity against Escherichia coli at 5 mg/mL after 24 hrs. Type of data set: functional. The settings on record: read-out: DIZ.

Values after ≈ are worked out from the molar mass of the structure shown.

`CCOC(=O)C1C(=O)N=C2SC(S(N)(=O)=O)=NN2C1c1ccc(Cl)cc1` (stereo unspecified): the LC50 at 24 h in data set [1] came out at 508 µg/mL (≈ 1220 µM). The LC90 in the data set with Artemia salina worked out at 914.63 µg/mL (≈ 2190 µM). Also, the mortality at 24 h, 10 ug/mL in [2] was found to be 36.6%. Moreover, the mortality at 24 h, 100 ug/mL in data set [3] was determined as 53.3%. The mortality at 24 h, 500 ug/mL in data set [4] was 70%. For the same molecule, in data set [5], the mortality at 24 h, 1000 ug/mL was determined as 83.3%. Also, the “diameter of the inhibition zone (DIZ)” value in [6] is listed as 11 mm. Further, the zone of inhibition at 5000 µg/mL with Aspergillus flavus was under 2 mm; in the data set with Aspergillus fumigatus, under 2 mm; in the data set on Candida albicans it was under 2 mm; in the data set on Staphylococcus aureus, 3 mm; in the data set with Bacillus cereus, 4 mm; in the data set with Escherichia coli, under 2 mm.

As to `CCOC(=O)C1C(=O)N=C2SC(S(N)(=O)=O)=NN2C1c1ccc(OC)c(OC)c1` (stereo unspecified), in data set [1], the LC50 at 24 h is 442 µg/mL (≈ 1000 µM). Moreover, the LC90 with Artemia salina amounted to 796.46 µg/mL (≈ 1800 µM). In addition, the mortality at 24 h, 10 ug/mL in data set [2] worked out at 50%. In addition, the mortality at 24 h, 100 ug/mL in data set [3] came to 70%. For the same molecule, the mortality at 24 h, 500 ug/mL in data set [4] was determined as 83.3%. Also, the mortality at 24 h, 1000 ug/mL in data set [5] came out at 93.3%. Besides, the “diameter of the inhibition zone (DIZ)” value in data set [6] was 8 mm. Moreover, the zone of inhibition at 5000 µg/mL was under 2 mm with Aspergillus flavus; under 2 mm in the data set with Aspergillus fumigatus; 4 mm in the data set on Candida albicans; 8 mm in the data set with Staphylococcus aureus; 7 mm in the data set on Bacillus cereus; under 2 mm in the data set on Escherichia coli.

For the origin of these results see ChEMBL document CHEMBL2375302, “Synthesis, antimicrobial, antiquorum-sensing, antitumor and cytotoxic activities of new series of fused [1,3,4]thiadiazoles” (Eur J Med Chem, 2013).
